This assay deals with T1, ACE (Rattus norvegicus, UniProt P47820).
T1 construct: After the removal of the lungs from SHR, the lung tissue was homogenized; from tissue; host or cells: lung homogenate of spontaneously hypertensive rats (SHR)
T1 sequence (P47820 36-1313): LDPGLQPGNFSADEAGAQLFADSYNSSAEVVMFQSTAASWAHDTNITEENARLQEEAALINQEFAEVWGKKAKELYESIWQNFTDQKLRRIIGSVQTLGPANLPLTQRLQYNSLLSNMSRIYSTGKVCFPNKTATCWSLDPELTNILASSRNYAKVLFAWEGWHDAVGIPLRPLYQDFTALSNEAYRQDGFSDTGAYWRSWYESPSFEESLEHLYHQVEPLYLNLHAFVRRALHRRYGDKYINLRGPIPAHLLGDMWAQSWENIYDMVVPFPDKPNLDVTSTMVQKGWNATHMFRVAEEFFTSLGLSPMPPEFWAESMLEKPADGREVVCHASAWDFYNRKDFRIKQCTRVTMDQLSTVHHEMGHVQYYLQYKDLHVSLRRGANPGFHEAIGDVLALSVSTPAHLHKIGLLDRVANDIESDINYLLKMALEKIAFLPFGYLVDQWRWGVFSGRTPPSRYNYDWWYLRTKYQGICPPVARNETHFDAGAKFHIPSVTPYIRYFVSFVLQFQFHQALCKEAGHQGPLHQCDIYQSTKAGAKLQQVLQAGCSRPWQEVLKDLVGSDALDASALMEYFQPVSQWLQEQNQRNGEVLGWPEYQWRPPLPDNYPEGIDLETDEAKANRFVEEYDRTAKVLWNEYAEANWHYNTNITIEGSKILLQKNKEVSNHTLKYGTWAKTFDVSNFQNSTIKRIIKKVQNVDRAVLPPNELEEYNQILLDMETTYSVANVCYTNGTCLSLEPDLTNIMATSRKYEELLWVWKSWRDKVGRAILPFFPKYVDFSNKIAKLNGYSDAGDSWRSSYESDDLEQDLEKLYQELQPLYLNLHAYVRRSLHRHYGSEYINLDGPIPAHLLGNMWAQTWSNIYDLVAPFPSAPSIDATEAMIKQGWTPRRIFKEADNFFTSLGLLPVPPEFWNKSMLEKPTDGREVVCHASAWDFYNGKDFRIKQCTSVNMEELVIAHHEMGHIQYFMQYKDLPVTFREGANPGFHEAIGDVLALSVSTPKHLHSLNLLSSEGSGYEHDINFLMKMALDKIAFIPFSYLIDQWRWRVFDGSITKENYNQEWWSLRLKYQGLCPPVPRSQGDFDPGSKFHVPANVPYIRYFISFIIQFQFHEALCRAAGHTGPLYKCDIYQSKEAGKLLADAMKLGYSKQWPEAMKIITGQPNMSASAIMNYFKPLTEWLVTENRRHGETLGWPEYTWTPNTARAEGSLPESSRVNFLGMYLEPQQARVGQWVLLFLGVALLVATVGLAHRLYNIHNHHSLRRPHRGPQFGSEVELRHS
Kind of assay: Ex vivo ACE-inhibitory activity in lung homogenates of treated SHR (radiometric, [3H]Hyp-Gly-Gly). The settings on record: SHR lungs; for inhibition at 30 µmol/kg: oral 30 µmoles/kg. More on the design: species or system spontaneously hypertensive rats (SHR). As to the method: The ex-vivo ACE/NEP-inhibitory activity, in particular, was determined by evaluating the enzymatic activity in tissue homogenates (lung and kidney for ACE and NEP activity, respectively) from spontaneously hypertensive rats (SHR) treated with the tested compounds by intravenous or oral route.
The ex vivo ACE-inhibitory activity was evaluated by using a radiometric assay method, as reported in the literature by J. W. Ryan et al. in Biochem. J. (1977), 167, 501-504.
The inhibitory activity of the compounds of formula I was evaluated in lungs of spontaneously hypertensive rats (SHR), 5 minutes after i.v. injection (0.6 and 21 µmoles/kg) and 30 minutes, 60 minutes and 4 hours after oral administration (30 µmoles/kg) of the tested compounds.
After the removal of the lungs from SHR, the lung tissue was homogenized and incubated for 2 hours at 37°C in the presence of [^3H]Hyp-Gly-Gly, as a substrate.
The reaction was stopped by adding hydrochloric acid.
The released radiolabelled hyppuric acid was extracted with ethyl acetate and counted by liquid scintillation spectrometry, according to conventional methods.
The ACE-inhibitory activity of the tested compounds was expressed as percentage of ACE-inhibition in SHR lungs.

SMILES strings stand for the structures. Read-outs that look alike come from different tables or passages of the source.

On to `O=C(N[C@@H](Cc1ccc(-c2nccs2)cc1)C(=O)O)[C@@H](CS)Cc1ccccc1` [Compound 16, N-[(2S)-3-mercapto-2-phenylmethylpropionyl]-4-(2-thiazolyl)-L-phenylalanine], for which the inhibition at 30 µmol/kg runs as follows: (30 minutes after administration, read-out: ACE-inhibition (lungs) 30 minutes) 60%; (60 minutes after administration, read-out: ACE-inhibition (lungs) 60 minutes) 36%; (4 hours after administration, read-out: ACE-inhibition (lungs) 4 hours) 45%. Where the note is “iv, i.v. 0.6 µmoles/kg, 5 minutes after injection”, this molecule had an inhibition at 0.6 µmol/kg of 15%. The molecule also showed an inhibition at 21 µmol/kg (iv, i.v. 21 µmoles/kg, 5 minutes after injection) of 72%.

In general, inhibition refers to the percentage by which the read-out fell short of the control.

For the origin of these results see patent EP0877740B1, “THIOL DERIVATIVES WITH METALLOPEPTIDASE INHIBITORY ACTIVITY” (ZAMBON GROUP S.p.A., priority 1995, dated 1997).
